For this assay, the target named is T1, wild-type LRRK2 (Homo sapiens, UniProt Q5S007).
T1 construct: DNA tag for qPCR detection (not a peptide; the protein part that carries it is not described); made in house; host or cells: HEK 293 cells (the same paragraph also describes T7 phage grown in E. coli BL21)
The assay can be described thus: Inhibitory activity against LRRK2: competition binding to ligand-affinity beads, DNA-tagged kinase quantitated by qPCR. The following applies: % of ctrl; for remaining binding at 0.01 µM: 10 nM compound, read-out: LRRK2(WT) Remaining kinase activity(%) at 10 nM; for remaining binding at 0.05 µM: 50 nM compound, read-out: LRRK2(WT) Remaining kinase activity(%) at 50 nM. A digest of the protocol: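 Human LRRK2 H970–E2527, wild type or G2019S, was expressed as DNA-tagged kinase (T7 phage in E. coli or HEK293) and competed for 1 h against a biotinylated ligand on streptavidin beads. Bound kinase was eluted with 0.5 µM free ligand and quantified by qPCR. Values are % of control at 100 nM (both forms) and at 10 and 50 nM (wild type).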
(Quantitative PCR measures a nucleic acid by following its amplification.)

The values below come from patent US20240254103A9, “NOVEL PYRIMIDINE DERIVATIVE, AND COMPOSITION FOR PREVENTING OR TREATING NEURODEGENERATIVE DISEASES AND CANCER, COMPRISING SAME” (WHAN IN PHARMACEUTICAL CO., LTD., priority 2020, published 2024).

Where only a bound is given, the exact number is not on record here.

T1 sequence (Q5S007 970-2527): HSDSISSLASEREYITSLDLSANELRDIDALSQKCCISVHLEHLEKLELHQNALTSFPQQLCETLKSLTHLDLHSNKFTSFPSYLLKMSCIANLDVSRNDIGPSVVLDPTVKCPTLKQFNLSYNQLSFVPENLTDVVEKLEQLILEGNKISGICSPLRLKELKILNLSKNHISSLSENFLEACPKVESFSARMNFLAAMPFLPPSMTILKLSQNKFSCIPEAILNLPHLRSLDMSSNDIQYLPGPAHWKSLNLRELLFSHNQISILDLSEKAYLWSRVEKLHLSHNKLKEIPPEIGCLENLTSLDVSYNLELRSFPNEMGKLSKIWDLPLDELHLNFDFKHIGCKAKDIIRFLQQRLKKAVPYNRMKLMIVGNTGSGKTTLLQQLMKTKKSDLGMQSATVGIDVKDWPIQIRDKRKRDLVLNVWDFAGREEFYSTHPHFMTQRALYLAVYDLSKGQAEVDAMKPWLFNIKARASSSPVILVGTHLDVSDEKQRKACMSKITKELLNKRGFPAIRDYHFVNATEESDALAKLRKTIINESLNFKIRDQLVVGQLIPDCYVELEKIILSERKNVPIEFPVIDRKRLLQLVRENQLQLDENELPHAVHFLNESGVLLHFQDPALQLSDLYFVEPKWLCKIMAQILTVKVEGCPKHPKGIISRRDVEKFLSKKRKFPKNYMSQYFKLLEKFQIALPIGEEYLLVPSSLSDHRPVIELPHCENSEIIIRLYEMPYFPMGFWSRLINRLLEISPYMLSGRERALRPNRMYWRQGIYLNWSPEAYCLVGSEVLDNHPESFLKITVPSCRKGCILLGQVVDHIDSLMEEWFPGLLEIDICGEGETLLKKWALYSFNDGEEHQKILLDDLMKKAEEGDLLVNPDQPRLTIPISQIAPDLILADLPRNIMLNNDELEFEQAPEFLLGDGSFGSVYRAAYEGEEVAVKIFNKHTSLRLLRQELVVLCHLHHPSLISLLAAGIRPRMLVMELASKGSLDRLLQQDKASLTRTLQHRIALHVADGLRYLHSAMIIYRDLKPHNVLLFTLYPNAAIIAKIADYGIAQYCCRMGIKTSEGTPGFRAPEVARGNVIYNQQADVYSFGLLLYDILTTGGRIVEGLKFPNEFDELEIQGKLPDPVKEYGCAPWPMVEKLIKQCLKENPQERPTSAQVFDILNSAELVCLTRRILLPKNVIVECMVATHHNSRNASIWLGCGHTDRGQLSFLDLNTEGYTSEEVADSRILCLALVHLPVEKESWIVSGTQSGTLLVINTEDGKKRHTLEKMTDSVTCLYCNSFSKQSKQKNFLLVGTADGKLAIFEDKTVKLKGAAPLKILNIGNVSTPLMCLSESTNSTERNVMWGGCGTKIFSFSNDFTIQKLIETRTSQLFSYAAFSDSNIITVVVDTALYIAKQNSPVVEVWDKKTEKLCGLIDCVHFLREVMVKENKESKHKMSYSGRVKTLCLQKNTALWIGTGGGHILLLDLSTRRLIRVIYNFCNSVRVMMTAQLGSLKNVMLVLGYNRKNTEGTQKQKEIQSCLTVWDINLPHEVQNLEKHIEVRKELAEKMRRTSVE

For `COCCNC(=O)c1ccc(Nc2ncc(Cl)c(-c3cnn(C(C)C)c3)n2)c(OC)c1` [Compound 140, 4-((5-chloro-4-(1-isopropyl-1H-pyrazol-4-yl)pyrimidin-2-yl)amino)-3-methoxy-N-(2-methoxyethyl)benzamide], the remaining binding at 0.01 µM is at least 50% and the remaining binding at 0.05 µM was below 30%.
`COc1cc(C(=O)NCC2CCOC2)ccc1Nc1ncc(Cl)c(-c2cnn(C(C)C)c2)n1` (centres unmarked) [Compound 130, 4-((5-chloro-4-(1-isopropyl-1H-pyrazol-4-yl)pyrimidin-2-yl)amino)-3-methoxy-N-((tetrahydrofuran-3-yl)methyl)benzamide]: the remaining binding at 0.01 µM is at least 50% and the remaining binding at 0.05 µM was below 30%.
On to `COc1cc(C(=O)Nc2ccc(Cl)cc2)ccc1Nc1ncc(Cl)c(-c2cnn(C(C)C)c2)n1` [Compound 151, 4-((5-chloro-4-(1-isopropyl-1H-pyrazol-4-yl)pyrimidin-2-yl)amino)-N-(4-chlorophenyl)-3-methoxybenzamide], for which the remaining binding at 0.01 µM was at least 50% and the remaining binding at 0.05 µM is below 50%.
The corresponding values for `COc1cc(C(=O)NCc2cccc(N)c2)ccc1Nc1ncc(Cl)c(-c2cnn(C(C)C)c2)n1` [Compound 205, N-(3-aminobenzyl)-4-((5-chloro-4-(1-isopropyl-1H-pyrazol-4-yl)pyrimidin-2-yl)amino)-3-methoxybenzamide] are at least 50% and below 50%.
`COc1cc(C(=O)NC2CCN(C)CC2)ccc1Nc1ncc(Cl)c(-c2cnn(C(C)(C)C)c2)n1` [Compound 96, 4-((4-(1-(tert-butyl)-1H-pyrazol-4-yl)-5-chloropyrimidin-2-yl)amino)-3-methoxy-N -(1-methylpiperidin-4-yl)benzamide]: the remaining binding at 0.01 µM is at least 50% and the remaining binding at 0.05 µM is below 30%.
Take `COc1cc(C(=O)NC2CCOCC2)ccc1Nc1ncc(Cl)c(-c2cnn(C(C)C)c2)n1` [Compound 80, 4-((5-chloro-4-(1-isopropyl-1H-pyrazol-4-yl)pyrimidin-2-yl)amino)-3-methoxy-N-(tetrahydro-2H-pyran-4-yl)benzamide]: the remaining binding at 0.01 µM was below 50% and the remaining binding at 0.05 µM is below 30%.
On to `COc1cc(C(=O)N2CCN(C)CC2)ccc1Nc1ncc(Cl)c(-c2cnn(C(C)(C)C)c2)n1` [Compound 85, (4-((4-(1-(tert-butyl)-1H-pyrazol-4-yl)-5-chloropyrimidin-2-yl)amino)-3-methoxyphenyl)(4-methylpiperazin-1-yl)methanone], for which the remaining binding at 0.01 µM is below 50% and the remaining binding at 0.05 µM was below 30%.
In the case of `COc1cc(C(=O)N2CCC3(CC2)COC3)ccc1Nc1ncc(Cl)c(-c2cnn(C(C)C)c2)n1` [Compound 71, (4-((5-chloro-4-(1-isopropyl-1H-pyrazol-4-yl)pyrimidin-2-yl)amino)-3-methoxyphenyl)(2-oxa-7-azaspiro[3.5]nonan-7-yl)methanone], the remaining binding at 0.01 µM was below 50% and the remaining binding at 0.05 µM is below 30%.
Consider `COc1cc(C(=O)N2CCN3CCCC3C2)ccc1Nc1ncc(Cl)c(-c2cnn(C(C)C)c2)n1` (centres unmarked) [Compound 87, (4-((5-chloro-4-(1-isopropyl-1H-pyrazol-4-yl)pyrimidin-2-yl)amino)-3-methoxyphenyl)(hexahydropyrrolo[1,2-a]pyrazin-2(1H)-yl)methanone], for which the remaining binding at 0.01 µM is below 50% and the remaining binding at 0.05 µM is below 30%.
For the compound `COc1cc(C(=O)NCc2ccc(C)cc2)ccc1Nc1ncc(Cl)c(-c2cnn(C(C)C)c2)n1` [Compound 126, 4-((5-chloro-4-(1-isopropyl-1H-pyrazol-4-yl)pyrimidin-2-yl)amino)-3-methoxy-N-(4-methylbenzyl)benzamide], the remaining binding at 0.01 µM is at least 50% and the remaining binding at 0.05 µM is below 50%.
For `COc1cc(C(=O)N2CC3CN(C)CC3C2)ccc1Nc1ncc(Cl)c(-c2cnn(C(C)C)c2)n1` (centres unmarked) [Compound 98, (4-((5-chloro-4-(1-isopropyl-1H-pyrazol-4-yl)pyrimidin-2-yl)amino)-3-methoxyphenyl)(5-methylhexahydropyrrolo[3,4-c]pyrrol-2(1H)-yl)methanone], the remaining binding at 0.01 µM was below 30% and the remaining binding at 0.05 µM is below 10%.
Regarding `COc1cc(C(=S)N2CCN(C)CC2)c(F)cc1Nc1ncc(Cl)c(-c2cnn(C(C)C)c2)n1` [Compound 102, (4-((5-chloro-4-(1-isopropyl-1H-pyrazol-4-yl)pyrimidin-2-yl)amino)-2-fluoro-5-methoxyphenyl)(4-methylpiperazin-1-yl) methanethione], the remaining binding at 0.01 µM is below 50% and the remaining binding at 0.05 µM was below 10%.
Consider `COc1cc(C(=O)NCCO)ccc1Nc1ncc(Cl)c(-c2cnn(C(C)C)c2)n1` [Compound 138, 4-((5-chloro-4-(1-isopropyl-1H-pyrazol-4-yl)pyrimidin-2-yl)amino)-N-(2-hydroxyethyl)-3-methoxybenzamide], for which the remaining binding at 0.01 µM is at least 50% and the remaining binding at 0.05 µM is below 50%.
Take `COc1cc(C(=S)N2CCN(C)CC2)ccc1Nc1ncc(Cl)c(-c2cnn(C(C)C)c2)n1` [Compound 103, (4-((5-chloro-4-(1-isopropyl-1H-pyrazol-4-yl)pyrimidin-2-yl)amino)-3-methoxyphenyl)(4-methylpiperazin-1-yl) methanethione]: the remaining binding at 0.01 µM is below 30% and the remaining binding at 0.05 µM is below 10%.
The corresponding values for `COc1cc(C(=O)N2CCC(N(C)C)CC2)c(F)cc1Nc1ncc(Cl)c(-c2cnn(C(C)C)c2)n1` [Compound 110, (4-((5-chloro-4-(1-isopropyl-1H-pyrazol-4-yl)pyrimidin-2-yl)amino)-2-fluoro-5-methoxyphenyl)(4-(dimethylamino)piperidin-1-yl)methanone] are below 50% and below 10%.
Take `COc1cc(C(=O)NCCCn2ccnc2)ccc1Nc1ncc(Cl)c(-c2cnn(C(C)C)c2)n1` [Compound 197, N-(3-(1H-imidazol-1-yl)propyl)-4-((5-chloro-4-(1-isopropyl-1H-pyrazol-4-yl)pyrimidin-2-yl)amino)-3-methoxybenzamide]: the remaining binding at 0.01 µM was at least 50% and the remaining binding at 0.05 µM was below 50%.
As to `COc1cc(C(=O)N2CCN(C)CC2)ccc1Nc1ncc(Cl)c(-c2cnn(C)c2)n1` [Compound 61, (4-((5-chloro-4-(1-methyl-1H-pyrazol-4-yl)pyrimidin-2-yl)amino)-3-methoxyphenyl)(4-methylpiperazin-1-yl)methanone], the remaining binding at 0.01 µM is below 50% and the remaining binding at 0.05 µM was below 30%.
On the same counts, the results for `COc1cc(C(=O)N2CCN(C(C)C)CC2)ccc1Nc1ncc(Cl)c(-c2cnn(C(C)(C)C)c2)n1` [Compound 88, (4-((4-(1-(tert-butyl)-1H-pyrazol-4-yl)-5-chloropyrimidin-2-yl)amino)-3-methoxyphenyl)(4-isopropylpiperazin-1-yl)methanone] are below 50% and below 10%.
On the same counts, the results for `COc1cc(C(=S)N2CCOCC2)ccc1Nc1ncc(Cl)c(-c2cnn(C(C)C)c2)n1` [Compound 74, (4-((5-chloro-4-(1-isopropyl-1H-pyrazol-4-yl)pyrimidin-2-yl)amino)-3-methoxyphenyl)(morpholino)methanethione] are below 50% and below 10%.
